Test results from patent US20170312334A1, “METHODS AND COMPOSITIONS FOR TREATING INFLAMMATORY DISORDERS” (ROGNE BIOSCIENCE INC., priority 2014, published 2017).

Assays:
NF-κB [1] = assay: NF-κB activation assay: camptothecin induced NF-κB nuclear binding; type: cell-based; details: camptothecin 10 μM to 10 nM
Experimental: Treatment of the nuclear extract with the p65 antibody results in a significant decrease in NF-κB/DNA binding. As a negative control, cells are left inactivated and nuclear extracts are treated with the NF-κB consensus sequence, illustrating only a slight background level of NT-κB.
Inhibition of camptothecin mediated activation of NF-κB by the agents disclosed herein is as follows: Induction of NF-κB activation can proceed via a wide range of signaling pathways (Delhase et al., Science 284: 309-313 (1999); Karin, Oncogene 18: 6867-6874 (1999)). Inhibition of NF-κB activation can proceed via the inhibition of many different pathways (Epinat and Gilmore, Oncogene 18: 6896-6909 (1999)). […]
Human Jurkat leukemia T-cells (clone E6-1; Amer. Type Culture Collection, Rockville, Md.) are grown in RPMI-1640 Media (Gibco-BRL, Rockville, Md.) supplemented with 10% fetal bovine serum, penicillin (614 ng/mL), streptomycin (10 μg/mL) and HEPES buffer, pH 7.2 at 37° C., 5% CO2. […] The protein concentration of the extracts is determined according to the Method of Bradford (1976) with BioRad reagents. […] After electrophoresis the gel is analyzed using a phosphorimager (Biorad FX plus) for detection of the NF-κB-DNA binding.

[2] = system: imiquimod-induced dermal inflammation; assay: Imiquimod-induced psoriasis-like skin inflammation model in mice; details: topically applied, in vivo, mice (FIG. 15)
Experimental: Psoriasis is induced by imiquimod applied to the back and ears of the test animals. The initial signs of the disease are observed within 5-6 days as redness and the appearance of plaque type psoriasis, and the disease progresses onto the entire back of the animal.
The study is carried out on female BALC/c mice, 9-10 weeks old at study initiation. […] The animals are divided into group 1 (naïve), group 2 (vehicle+IMQ), group 3 (C15 peptide test agent+IMQ) and group 4 (C15 peptide test agent+IMQ).
The animals are examined for signs of psoriasis on study day 1. These scores served as a baseline for the psoriasis clinical score parameter. Starting from IMQ cream application on day 1, psoriasis responses are examined from day 5 until termination of the study.
Psoriasis reactions (erythema and plaques) are scored and recorded. For plaques, a scale of 0-7 is used with 0 being normal and 7 being no fur with small red dots covering 50%-100% of the back. For erythema, a scale of 0-4 is used with 0 being normal and 4 being very marked. The clinical score is determined by summing the score of each section. The final psoriasis score is the sum of the erythema score and the plaques score.
Right ear thickness is measured before psoriasis induction on study day 1 (baseline). […] Right ear thickness is then measured on study days 5, 8 and 10 (study termination). […]

NF-κB [3] = assay: Modulation of NF-κB activity compared with steroid (FIG. 17); type: cell-based; details: FIG. 17A/17B
[4] = system: NF-κB-regulated cytokines; assay: Secretion of NF-κB-regulated cytokines by mouse macrophages (FIG. 18B); type: cell-based
RANTES [5] = assay: Newly synthesized RANTES in human macrophages (FIG. 18C); type: cell-based
TNFα = assay: Inhibition of LPS/IFNγ-induced cytokine expression (TNFα); type: cell-based
RANTES [6] = assay: Inhibition of LPS/IFNγ-induced cytokine expression (RANTES); type: cell-based

## CC[C@@]1(O)C(=O)OCc2c1cc1n(c2=O)Cc2cc3ccccc3nc2-1 [camptothecin]
NF-κB [1]
  NF-κB/DNA binding due to NF-κB activation: significant amount of NF-κB/DNA binding

## AGEDPHSFYFPGQFA (listed as Homo sapiens) [human C15 peptide]
[2]
  imiquimod-induced dermal inflammation: reduces imiquimod-induced dermal inflammation in vivo in a dose dependent manner
NF-κB [3]
  NF-κB activity modulation relative to steroid: modulates NF-κB activity more potently than steroid
[4]
  secretion of NF-κB-regulated cytokines: reduced
RANTES [5]; human macrophages (FIG. 18C)
  reduction of newly synthesized RANTES: > 90%
RANTES [5]; human macrophages, RANTES (FIG. 18C)
  potency relative to steroid (Dex): 10^6 time

## NNNNNNNNNN
TNFα
  Percent Inhibition of LPS/IFNγ-induced Cytokine Expression: 1%
RANTES [6]
  Percent Inhibition of LPS/IFNγ-induced Cytokine Expression: 0%
